According to ChEMBL document CHEMBL1135764, “Synthesis and evaluation of Glypsi(PO(2)R-N)Pro-containing pseudopeptides as novel inhibitors of the human cyclophilin hCyp-18” (J Med Chem, 2002):
Active and inactive are the calls of the source. The rule behind the calls is not given here.

Assays:
[1] = tested on: cyclophilin A hCyp-18 (Homo sapiens); experiment: Inhibitory activity against Human Cyclophilin hCyp-18 Peptidyl-prolyl isomerase by using the standard trypsin-coupled PPIase (peptidyl-prolyl isomerases) assay at a concentration of 100 uM
[2] = tested on: cyclophilin A hCyp-18 (Homo sapiens); experiment: Inhibitory activity against Human Cyclophilin hCyp-18 Peptidyl-prolyl isomerase by using the standard uncoupled PPIase (peptidyl-prolyl isomerases) assay at a concentration of 500 uM
[3] = tested on: cyclophilin A hCyp-18 (Homo sapiens); experiment: Inhibitory activity against Human Cyclophilin hCyp-18 Peptidyl-prolyl isomerase by using the standard uncoupled PPIase (peptidyl-prolyl isomerases) assay at a concentration of 500 uM;NI-no inhibition

Compound	Inhibition [1]	Inhibition [2]	NI [3]
COC(=O)Cc1ccc(NC(=O)[C@H](Cc2ccccc2)NC(=O)C2CCCN2P(=O)(O)CNC(=O)[C@H](C)NC(C)=O)cc1 (stereo partly drawn)	0%		
CCOP(=O)(CNC(=O)[C@H](C)NC(C)=O)N1CCCC1C(=O)N[C@H](CNc1ccc([N+](=O)[O-])cc1)Cc1ccccc1 (stereo partly drawn)		30%	inactive
